Drawing on ChEMBL document CHEMBL4477224, “Antidiabetic effect, antioxidant activity, and toxicity of 3',4'-Di-O-acetyl-cis-khellactone in Streptozotocin-induced diabetic rats” (Bioorg Med Chem Lett, 2016), this text covers Ratio, LD50 and Activity for five molecules.

A short description of data set [1]: Mutagenicity in Salmonella typhimurium TA98 assessed as mutagenic index at 0.19 uM/plate after 48 hrs in absence of S9 fraction by Ames test relative to control. The class given is toxicity. As to conditions: salmonella enterica subsp. enterica serovar typhimurium, s9, 48 h.
Data set [2] in a line: Mutagenicity in Salmonella typhimurium TA98 assessed as mutagenic index at 0.005 uM/plate after 48 hrs in presence of S9 fraction by Ames test relative to control. The class given is toxicity, subcellular. As to conditions: salmonella enterica subsp. enterica serovar typhimurium, s9, 48 h.
Data set [3] in a line: Mutagenicity in Salmonella typhimurium TA100 assessed as mutagenic index at 0.005 uM/plate after 48 hrs in presence of S9 fraction by Ames test relative to control. The class given is toxicity, subcellular. To be noted: salmonella enterica subsp. enterica serovar typhimurium, s9, 48 h.
Data set [4] can be described thus: Mutagenicity in Salmonella typhimurium TA102 assessed as mutagenic index at 0.005 uM/plate after 48 hrs in presence of S9 fraction by Ames test relative to control. To be noted: salmonella enterica subsp. enterica serovar typhimurium, s9, 48 h. The class given is toxicity, subcellular.
A short description of data set [5]: Toxicity in DBA/2J mouse assessed as mortality. As to conditions: in vivo.
The subject of data set [6] is Rattus norvegicus. The experiment in a line: Antidiabetic activity in STZ-induced diabetic Wistar rat assessed as body weight at 2.5 mg/kg, po administered on day 7 post STZ challenge measured immediately post dosage (reference value: 330.7 +/- 9.2 g). The class given is functional.
The test system of data set [7] is Rattus norvegicus. The data set can be described thus: Antidiabetic activity in STZ-induced diabetic Wistar rat assessed as body weight at 2.5 mg/kg, po administered for 15 days post STZ challenge measured on day 21 (reference value: 330.7 +/- 9.2 g). The class given is functional.
Data set [8] has as its system Rattus norvegicus. The experiment in a line: Antidiabetic activity in STZ-induced diabetic Wistar rat assessed as change in fasting blood glucose level at 2.5 mg/kg, po administered on day 7 post STZ challenge measured immediately post dosage by glucometry (reference value: 63.75 +/- 7.3 mg/dl). The data set is classed as functional.
For data set [9], the system named is Rattus norvegicus. The data set can be described thus: Antidiabetic activity in STZ-induced diabetic Wistar rat assessed as change in fasting blood glucose level at 2.5 mg/kg, po administered for 7 days post STZ challenge measured on day 14 by glucometry (reference value: 63.75 +/- 7.3 mg/dl). The data set is classed as functional.
In data set [10] the test system is Rattus norvegicus. The data set can be described thus: Antidiabetic activity in STZ-induced diabetic Wistar rat assessed as decrease in blood glucose level at 2.5 mg/kg, po administered for 15 days post STZ challenge measured on day 21 by glucometry relative to control. The class given is functional. Further details: scale not given: the % may be the effect or the level left.

Data set [11] relates to Rattus norvegicus. The data set can be described thus: Antidiabetic activity in STZ-induced diabetic Wistar rat blood assessed as creatinine level at 2.5 mg/kg, po administered for 15 days (reference value: 0.56 +/- 0.03 mg/dl). The class given is functional.
The test system of data set [12] is Rattus norvegicus. The data set can be described thus: Antidiabetic activity in STZ-induced diabetic Wistar rat blood assessed as urea level at 2.5 mg/kg, po administered for 15 days (reference value: 62.98 +/- 6.21 mg/dl). The data set is classed as functional.
Data set [13] relates to Rattus norvegicus. The experiment in a line: Antidiabetic activity in STZ-induced diabetic Wistar rat blood assessed as cholesterol level at 2.5 mg/kg, po administered for 15 days (reference value: 80.09 +/- 9.35 mg/dl). The data set is classed as functional.
In data set [14] the test system is Rattus norvegicus. The experiment in a line: Antidiabetic activity in STZ-induced diabetic Wistar rat blood assessed as HDL level at 2.5 mg/kg, po administered for 15 days (reference value: 36.31 +/- 0.51 mg/dl). The data set is classed as functional.
Data set [15] relates to Rattus norvegicus. The experiment in a line: Antidiabetic activity in STZ-induced diabetic Wistar rat blood assessed as LDL level at 2.5 mg/kg, po administered for 15 days (reference value: 23.11 +/- 9.82 mg/dl). The data set is classed as functional.
Data set [16] deals with Rattus norvegicus. The data set can be described thus: Antioxidant activity in STZ-induced diabetic Wistar rat liver assessed as catalase level measured as H2O2 consumption per mg of protein at 2.5 mg/kg, po administered for 15 days (reference value: 68.9 +/- 11.1 microM/min). The data set is classed as functional.
The subject of data set [17] is Rattus norvegicus. The experiment in a line: Antioxidant activity in STZ-induced diabetic Wistar rat liver assessed as glutathione peroxidase level measured as NADPH consumption per mg of protein at 2.5 mg/kg, po administered for 15 days (reference value: 10 +/- 0.6 microM/min). The class given is functional.
The subject of data set [18] is Rattus norvegicus. The data set can be described thus: Antioxidant activity in STZ-induced diabetic Wistar rat liver assessed as SOD level measured per mg of protein at 2.5 mg/kg, po administered for 15 days by NBT reduction test (reference value: 0.22 +/- 0.06 microM/min). The class given is functional.
The test system of data set [19] is Rattus norvegicus. The data set can be described thus: Antidiabetic activity in STZ-induced diabetic Wistar rat liver assessed as effect on central vein architecture at 2.5 mg/kg, po administered for 15 days by hematoxylin/eosin staining based microscopy. The class given is functional, organism-based.
The subject of data set [20] is Rattus norvegicus. The data set can be described thus: Antidiabetic activity in STZ-induced diabetic Wistar rat assessed as effect on hepatocytes surrounding central vein architecture at 2.5 mg/kg, po administered for 15 days by hematoxylin/eosin staining based microscopy. The data set is classed as functional, organism-based.
Data set [21] concerns Rattus norvegicus. The data set can be described thus: Antidiabetic activity in STZ-induced diabetic Wistar rat assessed as increase in body weight at 2.5 mg/kg, po administered for 15 days post STZ challenge measured on day 21. The class given is functional.
Data set [22] relates to Rattus norvegicus. The experiment in a line: Antidiabetic activity in STZ-induced diabetic Wistar rat assessed as change in fasting blood glucose level at 2.5 mg/kg, po administered for 15 days post STZ challenge measured on day 21 by glucometry (reference value: 63.75 +/- 7.3 mg/dl). The data set is classed as functional.
Data set [23] deals with Rattus norvegicus. The data set can be described thus: Antidiabetic activity in STZ-induced diabetic Wistar rat assessed as increase in fasting blood glucose level at 2.5 mg/kg, po administered for 15 days post STZ challenge measured on day 21 by glucometry. The data set is classed as functional.
In data set [24] the test system is Rattus norvegicus. The experiment in a line: Antidiabetic activity in STZ-induced diabetic albino Wistar rat assessed as increase in body weight at 100 mg/kg, po administered for 45 days relative to control. The data set is classed as functional.

Activity calls are given as the source filed them. No cut-off for these calls is given here.

With `CC1=NN(c2ccc([N+](=O)[O-])cc2)C(=O)C1[N+](=O)[O-]` (centres undefined), in [1], the Ratio was determined as 27.3.

As for `Nc1ccc2cc3ccccc3cc2c1` [2-AMINOANTHRACENE], the Ratio was found to be 54.1 in [2], 19.1 in data set [3] and 3.5 in data set [4].

Regarding `O=c1ccc2ccccc2o1` [COUMARIN], the LD50 in data set [5] is above 700 mg/kg.

In the case of `COc1ccc(Cl)cc1C(=O)NCCc1ccc(S(=O)(=O)NC(=O)NC2CCCCC2)cc1` [GLYBURIDE], the Activity in the data set on Rattus norvegicus [6] came to 341.4 g; in the data set on Rattus norvegicus [7] it was 385.5 g; in the data set on Rattus norvegicus [8], 211.7 mg/dL; in the data set with Rattus norvegicus [9] it was 282.8 mg/dL; in the data set with Rattus norvegicus [10], 56.6%; with Rattus norvegicus [11], 0.62 mg/dL. Besides, the Activity was determined as 58.43 mg/dL with Rattus norvegicus [12]; 70.64 mg/dL with Rattus norvegicus [13]; 26.6 mg/dL in the data set with Rattus norvegicus [14]; 21.71 mg/dL in the data set on Rattus norvegicus [15]; 93.2 µM/min with Rattus norvegicus [16]; 48.75 µM/min in the data set on Rattus norvegicus [17]. Besides, the Activity in the data set with Rattus norvegicus [18] worked out at 0.55 U/min; with Rattus norvegicus [21], 54.8 g; in the data set on Rattus norvegicus [22], 142 mg/dL; in the data set with Rattus norvegicus [23], 78.25 mg/dL. For the same molecule, the result with Rattus norvegicus [19] and in the data set with Rattus norvegicus [20] was Active.

Consider `C[C@@H]1O[C@@H](OC[C@H]2O[C@@H](Oc3c(-c4ccc(O)c(O)c4)oc4cc(O)cc(O)c4c3=O)[C@H](O)[C@@H](O)[C@@H]2O)[C@H](O)[C@H](O)[C@H]1O` [RUTIN], for which the Activity in the data set with Rattus norvegicus [24] is listed as 12.1%.
